{"source": "paper PMC8362126", "about": "“Proteolysis Targeting Chimera (PROTAC) for Macrophage Migration Inhibitory Factor (MIF) Has Anti‐Proliferative Activity in Lung Cancer Cells” (Angewandte Chemie (International Ed. in English), 2021)", "key": {"A549 cells": {"test_system": "A549 cells", "assay": "CyQUANT cell proliferation assay", "assay_type": "cell-based, human", "conditions": "concentrations up to 20 μM, 72 hours", "method": "S8. Cell growth, cell cycle and pERK signaling study\nCell proliferation was measured with the CyQUANT® Direct Cell Proliferation Assay Kit (Thermo Fisher, #C35011). A549 cells were cultured in 96-well plates at a density of 1,000 cells/well and treated with different concentrations of MIF PROTAC (0.02-20 μM) for 72 h.\nCells were incubated with detection reagent (100 μL) for 60 min at 37 °C with 5% CO2. The fluorescence of each well was read at 485/535nm by plate reader (BioTek).\nFigure S8. Cells were seeded with a density of 1000 cells per well in a 96-well plate. After overnight incubation, the cells were treated with various concentration of MD13 for 72 hours.\nThe resulting cells were quantified by CyQUANT® cell proliferation assays and compared with the vehicle (DMSO) control (n=3). […]\n(also on this page, place not known: (0.02 -20 CO 2. (20 µM) 4 (20 µM) µM 20 µM 0.01 µM 0.08 µM 0.74 µM 6.7 µM 20 µM 0 50 100 Cell (%) H441 n.s. * * ** *** * n.s. MD15 96 -well MD13 proliferation control 96 -well round - 2 3) […]\n(1 picture or pasted object on this page, not shown here)"}, "A549 cell spheroids": {"test_system": "A549 cell spheroids", "assay": "3D tumor spheroid assay", "assay_type": "cell-based, human", "conditions": "5 μM, 12 days", "method": "A 3D spheroid model was employed to investigate the effect of longer term MD13 treatment in a more complex model for tumor growth. The 3D spheroid model was established using A549 cancer cells by a method adapted from Feng et al.[48] The spheroids were grown over a 12‐day period in absence or presence of PROTAC MD13. Each spheroid was prepared from about 1000 A549 cells. After three‐day incubation, these spheroids were treated with 1, 2, or 5 μM of MD13 with 72 hours intervals over 12 days. Spheroid growth was monitored by measuring the diameter and this was compared to day 0 of the treatment. The tumor spheroids in MD13 treated groups were significant smaller compared to the control group (Figure 5 B and Figure S9). With continuous exposure to 1, 2, or 5 μM of MD13 for 12 days, the growth of the spheroid tumor volume was inhibited by 42 %, 53 %, and 81 % compared with control group, respectively. […]\nTumor spheroid assay. A549 cells (1000 cells/well) were seeded onto a 96-well round-bottomed ultra low attachment plate (Corning). After 2 days of incubation without disturbance, the spheroid was treated with indicated compound every 3 days. […]\n(1 picture or pasted object on this page, not shown here) […]\ninverted microscope (Nikon Eclipse Ti) connected with a NIS-elements software. The data were analyzed and plotted with Graphpad Prism8. […]\ncells were seeded in an ultralow attachment 96-well round-bottomed plate (1000 cells/well) to generate tumor spheroids (a single spheroid per well). After initiation, the spheroids were treated with different compounds at the indicated concentrations every three days. DMSO was used as vehicle control. The day of the first treatment was indicated as day 0. (A) Representative images were obtained at the indicated intervals using an inverted microscope. Scale bar: 500 μm. (B) Analysis was carried out using NIS-Elements AR 3.1 software, and growth curves were obtained relative to the untreated spheroids (day 0) and plotted with GraphPad Prism 8. Values are shown as means ± SD (n = 3 spheroids/time point, **p < 0.01 vs control). […]"}, "ERK phosphorylation": {"test_system": "ERK phosphorylation", "assay": "ERK phosphorylation by western blot", "assay_type": "cell-based, human", "conditions": "A549, 2 μM; 3 and 4 for 24 h, MD15 for 6, 24 or 48 h", "method": "The effect of treatment with MIF‐directed PROTAC MD13 on MIF‐related signaling pathways was investigated by assessment of ERK phosphorylation using western blot analysis. […] Thus treatment with the MIF‐directed PROTAC MD13 inhibits ERK phosphorylation as a MIF‐related signaling event. […]\nERK signaling pathway study. A549 cells (2x10^5 cells per well) were seeded into each well of a 6-well plate with 2 mL RPMI-1640 medium containing 10% FBS (Costar Europe, Badhoevedorp, The Netherlands), and 1% penicillin/streptomycin solution (Corning). After overnight culturing, the cells were treated with MD13, MD15, or DMSO for the time indicated.\nAfter that, cells were lysed by RIPA buffer containing 1× PhosSTOP and protease inhibitor (PI) cocktail (Roche, Mannheim, Germany). The BCA Protein Assay Kit (Pierce, Rockford IL, USA) was used to determine the protein concentration. 30 µg protein was separated by a pre-cast 10% NuPAGE Bis-Tris gel (Invitrogen, USA) and then transferred to a polyvinylidene difluoride (PVDF) membrane. After blocking with 5% of skimmed milk for 1 hour at room temperature and incubation with the appropriate primary antibody (pERK, #9101, Cell Signaling, 1:1000; GAPDH, #97166, Cell Signaling, 1:10000) overnight at 4 °C, the membrane was treated with an HRP-conjugated secondary goat anti-rabbit antibody (#P0448, Dako, 1:2000) or rabbit anti-mouse antibody (#P0260, Dako, 1:2000) at room temperature for 1 hour.\nThe protein bands were visualized with enhanced chemiluminescence (ECL) solution (GE Healthcare). The figures were quantified with imageJ software based on grayscale. […]"}, "MIF": {"biological_target": "T1, MIF (Homo sapiens, UniProt P14174)", "T1 sequence (P14174 2-115 limits assumed)": "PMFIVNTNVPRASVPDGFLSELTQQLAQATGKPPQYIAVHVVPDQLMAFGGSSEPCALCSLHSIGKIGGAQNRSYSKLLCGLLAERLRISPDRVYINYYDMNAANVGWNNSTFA", "assay": "MIF degradation in A549 cells, western-blot", "assay_type": "cell-based", "design": "endogenous in cells; host or cells: A549 (ATCC CCL-185)", "conditions": "A549 cells", "method": "The concentration dependence of PROTAC MD13‐mediated induction of MIF degradation in A549 cells was investigated using western‐blot. […] The MIF levels were normalized to the vehicle treated control and plotted to the respective MD13 concentrations. This provided a DC50 of around 100 nM and a maximal degradation of around 90–95 % at concentrations higher than 1 μM (Figure 3 B). The DC50 of MD13 measured by ELISA assay was about 200 nM (Figure 3 C), which is in line with the result from western‐blot. […]\nCell lysates were prepared using the protocol described above. About 10−40 μg of total protein was mixed with the 4× Laemmli Loading Dye (250 mM Tris, pH 6.8, 40% glycerol, 5% SDS, 0.005% bromophenol blue, 4% β-mercaptoethanol) and heated at 95−100 °C for 5 min and loaded onto a 12% Bis-Tris gel (Bio-Rad Laboratories, #4561084) and proteins were separated at 120V. Afterwards, proteins were transferred to polyvinylidene fluoride (PVDF) membranes, subsequently non-specific antibody binding was blocked with 5% nonfat dry milk (BIO-RAD, #1706404) in TBST buffer and incubated overnight at 4 °C with one of the following primary antibodies: anti-MIF (1:1000, ThermoFisher, #PA5-27343 ) or anti-β-actin (1:10000 Cell Signalling, #8457). The membranes were further incubated with a goat anti-rabbit HRP-conjugated secondary antibody (1:2000, DAKO, p0448) for 2 h at room temperature. Proteins were visualized with an ECLTM Prime Western Blotting System (GE Healthcare #RPN2232). The immunoblot was generated by ChemiDoc MP Imaging Systems (Bio-Rad) and analyzed by the ImageJ software. […]\nAs a control, the same experiment was repeated and analyzed by a western-blot assay (Figure 3B). The potency estimated from the Western blot assay was 1 µM (Figure 3C), which is consistent with the result from the ELISA assay. The “Hook effect” […]"}}, "note": "“Also recorded” adds a separate entry of the source.", "data": [{"smiles": "Nc1cccc2c1C(=O)N(C1CCC(=O)NC1=O)C2=O", "note": "(centres unmarked) [compound 4, pomalidomide]", "values": [{"measurement": "effect on cell proliferation", "setting": "A549 cells", "result": "no effect; also recorded: no or little effect"}, {"measurement": "influence on spheroid tumor growth", "setting": "A549 cell spheroids", "result": "no significant influence"}, {"measurement": "effect on pERK levels", "setting": "ERK phosphorylation", "result": "no significant decrease"}, {"measurement": "rescue of MD9 mediated MIF degradation", "setting": "MIF; 2 hours pretreatment (1 100 µM, 3 50 µM, 4 50 µM, Bortezomib), then 10 µM MD9 12 h", "result": "partial to complete rescue; also recorded: rescued"}, {"measurement": "rescue of MD13 mediated MIF degradation", "setting": "MIF; co-treatment (Bortezomib) or 1 hour pretreatment (3, 4) with MD13", "result": "rescued MIF from degradation; also recorded: able to abolish the MD13 triggered degradation"}]}]}
